Measured values: patent publication US20260297060A1, “COMPOUNDS FOR THE DEGRADATION OF MUTANT BRAF” (C4 THERAPEUTICS, INC., priority 2023, published 2026)
Read-outs that look alike come from different tables or passages of the source.

Target: T1, BRAF V600E (Homo sapiens, UniProt P15056+Q96SW2, V600E)
T1 construct: knock-in of the HiBiT tag to the endogenous BRAF V600E locus; host or cells: A375.10 (A375 clonal line, CRISPR HiBiT knock-in at the endogenous BRAF V600E locus)
Experiment: BRAF V600E HiBiT Degradation Assay
Type: cell-based
Summary of the method: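 Endogenous HiBiT knock-in on BRAF V600E in A375 cells (clone A375.10); 11-point half-log series, top 10 μM, 2, 6 or 24 h at 37° C. Lytic HiBiT luminescence, background-subtracted, normalized to DMSO; 4-parameter fit gives DC50, Emax (residual protein) and IP (inflection point).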

[1] = A375.10 cells, BRAF V600E, 2 hours, inflection point, read-out: HiBiT-Degradation A375.10 BRAF 2 hours IP
[2] = A375.10 cells, BRAF V600E, 2 hours, read-out: HiBiT-Degradation A375.10 BRAF 2 hours DC50
[3] = A375.10 cells, HiBiT, BRAF V600E, 24 hours, read-out: HiBiT-Degradation A375.10 BRAF 24 hours DC50
[4] = A375.10 cells, HiBiT, BRAF V600E, 24 hours, read-out: HiBiT-Degradation A375.10 BRAF 24 hours IP
[5] = A375.10 cells, HiBiT, BRAF V600E, 24 hours, read-out: HiBiT-Degradation A375.10 BRAF 24 hours Emax
[6] = read-out: HiBiT-Degradation A375.10 BRAF 2 hours Emax, A375.10 cells, BRAF V600E, 2 hours, residual protein remaining
[7] = A375.10 cells, BRAF V600E, 6 hours, inflection point, read-out: HiBiT-Degradation A375.10 BRAF 6 hours IP
[8] = A375.10 cells, BRAF V600E, 6 hours, read-out: HiBiT-Degradation A375.10 BRAF 6 hours DC50
[9] = A375.10 cells, BRAF V600E, 6 hours, residual protein remaining, read-out: HiBiT-Degradation A375.10 BRAF 6 hours Emax
[10] = A375.10 cells, BRAF V600E, 2 hours, residual protein remaining, read-out: HiBiT-Degradation A375.10 BRAF 2 hours Emax
[11] = read-out: HiBiT-Degradation A375.10 BRAF 2 hours DC50, A375.10 cells, BRAF V600E, 2 hours
[12] = read-out: HiBiT-Degradation A375.10 BRAF 2 hours IP, A375.10 cells, BRAF V600E, 2 hours, inflection point
[13] = read-out: HiBiT-Degradation A375.10 BRAF 6 hours DC50, A375.10 cells, BRAF V600E, 6 hours
[14] = read-out: HiBiT-Degradation A375.10 BRAF 6 hours IP, A375.10 cells, BRAF V600E, 6 hours, inflection point
[15] = read-out: HiBiT-Degradation A375.10 BRAF 24 hours DC50, A375.10 cells, HiBiT, BRAF V600E, 24 hours
[16] = read-out: HiBiT-Degradation A375.10 BRAF 24 hours IP, A375.10 cells, HiBiT, BRAF V600E, 24 hours

T1 sequence (P15056 whole entry V600E): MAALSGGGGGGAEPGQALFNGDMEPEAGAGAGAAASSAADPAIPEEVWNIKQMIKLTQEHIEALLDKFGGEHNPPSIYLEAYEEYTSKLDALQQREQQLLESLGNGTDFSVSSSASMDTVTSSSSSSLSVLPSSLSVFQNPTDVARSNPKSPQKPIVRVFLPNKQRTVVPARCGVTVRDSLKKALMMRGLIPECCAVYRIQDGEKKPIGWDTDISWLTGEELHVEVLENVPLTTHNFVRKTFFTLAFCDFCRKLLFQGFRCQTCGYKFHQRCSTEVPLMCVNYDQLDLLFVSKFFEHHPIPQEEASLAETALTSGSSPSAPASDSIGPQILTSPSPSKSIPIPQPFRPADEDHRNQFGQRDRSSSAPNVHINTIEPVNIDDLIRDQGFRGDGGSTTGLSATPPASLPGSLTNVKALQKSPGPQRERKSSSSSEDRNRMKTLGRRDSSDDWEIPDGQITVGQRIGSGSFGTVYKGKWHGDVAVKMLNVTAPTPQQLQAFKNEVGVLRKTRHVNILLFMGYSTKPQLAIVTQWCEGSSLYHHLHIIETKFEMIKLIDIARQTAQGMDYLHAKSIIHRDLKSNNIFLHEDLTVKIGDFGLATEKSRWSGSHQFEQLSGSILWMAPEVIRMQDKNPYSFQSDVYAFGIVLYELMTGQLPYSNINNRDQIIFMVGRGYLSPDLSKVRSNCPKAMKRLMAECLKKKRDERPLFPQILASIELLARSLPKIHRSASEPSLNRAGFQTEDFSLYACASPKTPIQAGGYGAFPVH
T1 sequence (Q96SW2 whole entry): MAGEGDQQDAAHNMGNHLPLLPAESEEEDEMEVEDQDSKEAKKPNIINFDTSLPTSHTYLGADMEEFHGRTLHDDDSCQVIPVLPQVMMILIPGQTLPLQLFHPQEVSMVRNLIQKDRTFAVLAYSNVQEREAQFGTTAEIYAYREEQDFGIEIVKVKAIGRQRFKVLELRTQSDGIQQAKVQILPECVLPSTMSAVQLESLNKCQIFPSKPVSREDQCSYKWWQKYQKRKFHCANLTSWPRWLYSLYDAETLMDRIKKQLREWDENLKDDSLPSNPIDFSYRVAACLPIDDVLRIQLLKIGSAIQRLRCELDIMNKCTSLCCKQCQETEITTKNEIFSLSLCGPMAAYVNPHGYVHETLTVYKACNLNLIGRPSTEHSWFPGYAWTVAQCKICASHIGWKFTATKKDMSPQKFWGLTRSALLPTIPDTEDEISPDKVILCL
T1 sequence (Q16531 whole entry partner): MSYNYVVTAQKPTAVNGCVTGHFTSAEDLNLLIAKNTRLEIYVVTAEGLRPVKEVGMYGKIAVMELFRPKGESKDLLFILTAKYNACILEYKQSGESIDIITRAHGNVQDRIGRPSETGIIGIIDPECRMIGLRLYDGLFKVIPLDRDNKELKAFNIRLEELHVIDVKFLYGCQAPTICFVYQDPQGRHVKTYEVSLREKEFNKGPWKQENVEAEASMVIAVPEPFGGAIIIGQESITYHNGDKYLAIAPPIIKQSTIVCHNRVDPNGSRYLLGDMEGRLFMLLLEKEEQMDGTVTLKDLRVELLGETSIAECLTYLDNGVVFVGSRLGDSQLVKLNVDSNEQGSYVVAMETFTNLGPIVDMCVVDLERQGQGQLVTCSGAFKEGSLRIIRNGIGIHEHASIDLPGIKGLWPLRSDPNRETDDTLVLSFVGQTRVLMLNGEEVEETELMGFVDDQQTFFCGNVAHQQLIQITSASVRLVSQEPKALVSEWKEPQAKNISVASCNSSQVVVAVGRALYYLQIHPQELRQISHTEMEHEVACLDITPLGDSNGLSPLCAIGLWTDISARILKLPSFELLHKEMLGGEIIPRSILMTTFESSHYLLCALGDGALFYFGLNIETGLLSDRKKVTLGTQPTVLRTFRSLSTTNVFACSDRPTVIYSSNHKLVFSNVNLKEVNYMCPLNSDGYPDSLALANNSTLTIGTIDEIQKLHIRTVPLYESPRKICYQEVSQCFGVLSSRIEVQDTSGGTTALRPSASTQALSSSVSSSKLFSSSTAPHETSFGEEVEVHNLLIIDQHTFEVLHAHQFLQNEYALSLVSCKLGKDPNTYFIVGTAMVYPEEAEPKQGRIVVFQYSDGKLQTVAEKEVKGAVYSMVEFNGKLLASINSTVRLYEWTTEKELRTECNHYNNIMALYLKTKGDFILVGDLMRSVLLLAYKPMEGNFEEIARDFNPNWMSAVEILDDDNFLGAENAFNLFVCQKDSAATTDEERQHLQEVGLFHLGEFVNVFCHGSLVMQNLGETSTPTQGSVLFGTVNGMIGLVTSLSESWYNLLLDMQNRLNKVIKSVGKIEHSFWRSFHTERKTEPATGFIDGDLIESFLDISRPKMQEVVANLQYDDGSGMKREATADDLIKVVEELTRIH

Row | Structure (SMILES) | HiBiT-Degradation A375.10 BRAF 2 hours Emax | DC50 [1] | DC50 [2] | HiBiT-Degradation A375.10 BRAF 24 hours Emax (A375.10 cells, HiBiT, BRAF V600E, 24 hours) | DC50 [3] | DC50 [4] | Emax [5] | Emax [6] | DC50 [7] | DC50 [8] | Emax [9] | Emax [10] | DC50 [11] | DC50 [12] | DC50 [13] | DC50 [14] | DC50 [15] | DC50 [16]
1 | CCN(C)S(=O)(=O)Nc1ccc(F)c(Oc2ccc3ncn(C4CC5(C4)CN(C4CCC(c6cc7c(cc6F)c(N6CCC(=O)NC6=O)nn7C)CC4)C5)c(=O)c3c2)c1C#N (single isomer, unassigned) [Compound 204, 6-[2-cyano-3-[[ethyl(methyl)sulfamoyl]amino]-6-fluoro-phenoxy]-3-[2-[4-[3-(2,4-dioxohexahydropyrimidin-1-yl)-5-fluoro-1-methyl-indazol-6-yl]cyclohexyl]-2-azaspiro[3.3]heptan-6-yl]-4-oxo-quinazoline] | *** (<=50%) | < 1000 nM | < 1000 nM | *** (<=50%) | < 1000 nM | < 1000 nM |  |  |  |  |  |  |  |  |  |  |  | 
2 | CCN(C)S(=O)(=O)Nc1ccc(F)c(Oc2ccc3ncc(OC4CC5(CCN(C6CCC(c7cc8c(cc7F)c(N7CCC(=O)NC7=O)nn8C)CC6)CC5)C4)nc3c2)c1C#N (single isomer, unassigned) [Compound 218, 7-[2-cyano-3-[[ethyl(methyl)sulfamoyl]amino]-6-fluoro-phenoxy]-2-[[7-[4-[3-(2,4-dioxohexahydropyrimidin-1-yl)-5-fluoro-1-methyl-indazol-6-yl]cyclohexyl]-7-azaspiro[3.5]nonan-2-yl]oxy]quinoxaline] |  | < 1000 nM | < 1000 nM |  | < 1000 nM | < 1000 nM | < 50% | < 50% |  |  |  |  |  |  |  |  |  | 
3 | CCN(C)S(=O)(=O)Nc1ccc(F)c(Oc2ccc3ncn([C@H]4COC5(CCN(C6CC7(C6)CN(c6cc8c(cc6F)c(N6CCC(=O)NC6=O)nn8C)C7)CC5)C4)c(=O)c3c2)c1C#N [Compound 26, (3R)-3-[6-[2-cyano-3-[[ethyl(methyl)sulfamoyl]amino]-6-fluoro-phenoxy]-4-oxo-quinazolin-3-yl]-8-[2-[3-(2,4-dioxohexahydropyrimidin-1-yl)-5-fluoro-1-methyl-indazol-6-yl]-2-azaspiro[3.3]heptan-6-yl]-1-oxa-8-azaspiro[4.5]decane] |  | < 1000 nM | < 1000 nM |  | < 1000 nM | < 1000 nM | < 50% | < 50% | < 1000 nM | < 1000 nM | < 50% |  |  |  |  |  |  | 
4 | CCN(C)S(=O)(=O)Nc1ccc(F)c(Oc2ccc3ncn([C@H]4COC5(CCC(N6CC7(CN(c8cc9c(cc8F)c(N8CCC(=O)NC8=O)nn9C)C7)C6)CC5)C4)c(=O)c3c2)c1C#N (stereo partly drawn) [Compound 27, 6-[2-cyano-3-[[ethyl(methyl)sulfamoyl]amino]-6-fluoro-phenoxy]-3-[(3R)-8-[6-[3-(2,4-dioxohexahydropyrimidin-1-yl)-5-fluoro-1-methyl-indazol-6-yl]-2,6-diazaspiro[3.3]heptan-2-yl]-1-oxaspiro[4.5]decan-3-yl]-4-oxo-quinazoline] |  | < 1000 nM | < 1000 nM |  | < 1000 nM | < 1000 nM | < 50% |  | < 1000 nM | < 1000 nM | < 50% | < 50% |  |  |  |  |  | 
5 | CCN(C)S(=O)(=O)Nc1ccc(F)c(Oc2ccc3ncn([C@H]4COC5(CCC(N6CC7(CN(c8ccc(NC9CCC(=O)NC9=O)cc8F)C7)C6)CC5)C4)c(=O)c3c2)c1C#N (stereo partly drawn) [Compound 30, 6-[2-cyano-3-[[ethyl(methyl)sulfamoyl]amino]-6-fluoro-phenoxy]-3-[(3R)-8-[6-[4-[(2,6-dioxo-3-piperidyl)amino]-2-fluoro-phenyl]-2,6-diazaspiro[3.3]heptan-2-yl]-1-oxaspiro[4.5]decan-3-yl]-4-oxo-quinazoline] |  | < 1000 nM | < 1000 nM |  | < 1000 nM | < 1000 nM | < 50% | < 50% | < 1000 nM | < 1000 nM | < 50% |  |  |  |  |  |  | 
6 | CCN(C)S(=O)(=O)Nc1ccc(F)c(Oc2ccc3ncn([C@H]4COC5(CCN(C6CC7(C6)CN(c6ccc(NC8CCC(=O)NC8=O)cc6F)C7)CC5)C4)c(=O)c3c2)c1C#N (stereo partly drawn) [Compound 35, (3R)-3-[6-[2-cyano-3-[[ethyl(methyl)sulfamoyl]amino]-6-fluoro-phenoxy]-4-oxo-quinazolin-3-yl]-8-[2-[4-[(2,6-dioxo-3-piperidyl)amino]-2-fluoro-phenyl]-2-azaspiro[3.3]heptan-6-yl]-1-oxa-8-azaspiro[4.5]decane] |  | < 1000 nM | < 1000 nM |  | < 1000 nM | < 1000 nM | < 50% |  | < 1000 nM | < 1000 nM | < 50% | < 50% |  |  |  |  |  | 
7 | CCN(C)S(=O)(=O)Nc1ccc(F)c(Oc2ccc3ncn([C@H]4COC5(CCC(N6CCN(c7ccc(NC8CCC(=O)NC8=O)cc7F)CC6)CC5)C4)c(=O)c3c2)c1C#N (stereo partly drawn) [Compound 40, 6-[2-cyano-3-[[ethyl(methyl)sulfamoyl]amino]-6-fluoro-phenoxy]-3-[(3R)-8-[4-[4-[(2,6-dioxo-3-piperidyl)amino]-2-fluoro-phenyl]piperazin-1-yl]-1-oxaspiro[4.5]decan-3-yl]-4-oxo-quinazoline] |  |  |  |  |  |  | < 50% |  |  |  | < 50% | 50 to 90% | 1000 to 10000 nM | < 1000 nM | < 1000 nM | < 1000 nM | < 1000 nM | < 1000 nM
8 | Cn1nc(N2CCC(=O)NC2=O)c2cc(F)c(N3CC4(CC(N5CCC6(CC5)C[C@@H](n5cnc7ccc(Oc8c(F)ccc(NS(=O)(=O)N9CC[C@@H](F)C9)c8C#N)cc7c5=O)CO6)C4)C3)cc21 [Compound 133, (3R)-N-[2-cyano-3-[3-[(3R)-8-[2-[3-(2,4-dioxohexahydropyrimidin-1-yl)-5-fluoro-1-methyl-indazol-6-yl]-2-azaspiro[3.3]heptan-6-yl]-1-oxa-8-azaspiro[4.5]decan-3-yl]-4-oxo-quinazolin-6-yl]oxy-4-fluoro-phenyl]-3-fluoro-pyrrolidine-1-sulfonamide] |  | < 1000 nM | > 10000 nM |  | < 1000 nM | < 1000 nM | < 50% | 50 to 90% | < 1000 nM | < 1000 nM | < 50% |  |  |  |  |  |  | 
9 | CC(C)S(=O)(=O)Nc1ccc(F)c(Oc2ccc3ncn([C@H]4COC5(CCN(C6CC7(C6)CN(c6cc8c(cc6F)c(N6CCC(=O)NC6=O)nn8C)C7)CC5)C4)c(=O)c3c2)c1C#N [Compound 134, N-[2-cyano-3-[3-[(3R)-8-[2-[3-(2,4-dioxohexahydropyrimidin-1-yl)-5-fluoro-1-methyl-indazol-6-yl]-2-azaspiro[3.3]heptan-6-yl]-1-oxa-8-azaspiro[4.5]decan-3-yl]-4-oxo-quinazolin-6-yl]oxy-4-fluoro-phenyl]propane-2-sulfonamide] |  | < 1000 nM | < 1000 nM |  | < 1000 nM | < 1000 nM | < 50% |  | < 1000 nM | < 1000 nM | < 50% | 50 to 90% |  |  |  |  |  | 
10 | CCN(C)S(=O)(=O)Nc1ccc(F)c(Oc2ccc3ncn(C4CC5(CCN(C6CC7(C6)CN(c6cc8c(cc6F)c(N6CCC(=O)NC6=O)nn8C)C7)CC5)C4)c(=O)c3c2)c1C#N (stereo not drawn) [Compound 141, 6-[2-cyano-3-[[ethyl(methyl)sulfamoyl]amino]-6-fluoro-phenoxy]-3-[7-[2-[3-(2,4-dioxohexahydropyrimidin-1-yl)-5-fluoro-1-methyl-indazol-6-yl]-2-azaspiro[3.3]heptan-6-yl]-7-azaspiro[3.5]nonan-2-yl]-4-oxo-quinazoline] |  | < 1000 nM | < 1000 nM |  | < 1000 nM | < 1000 nM | < 50% | < 50% | < 1000 nM | < 1000 nM | < 50% |  |  |  |  |  |  | 
11 | CO[C@@H]1CCN(S(=O)(=O)Nc2ccc(F)c(Oc3ccc4ncn([C@H]5COC6(CCN(C7CC8(C7)CN(c7cc9c(cc7F)c(N7CCC(=O)NC7=O)nn9C)C8)CC6)C5)c(=O)c4c3)c2C#N)C1 [Compound 144, (3R)-N-[2-cyano-3-[3-[(3R)-8-[2-[3-(2,4-dioxohexahydropyrimidin-1-yl)-5-fluoro-1-methyl-indazol-6-yl]-2-azaspiro[3.3]heptan-6-yl]-1-oxa-8-azaspiro[4.5]decan-3-yl]-4-oxo-quinazolin-6-yl]oxy-4-fluoro-phenyl]-3-methoxy-pyrrolidine-1-sulfonamide] |  |  |  |  |  |  | < 50% | 50 to 90% |  |  | < 50% |  | 1000 to 10000 nM | < 1000 nM | < 1000 nM | < 1000 nM | < 1000 nM | < 1000 nM
